The values that follow are results of earlier work, collected in US20030073219A1, “Crystal structure” (priority 2001, published 2003).

Usually Km stands for the concentration of substrate that gives half-maximal velocity.

The data set deals with ApbA protein (ketopantoate reductase) (Salmonella typhimurium, UniProt P37402). The conditions noted are these: purified ApbA protein from S. typhimurium; substrate/cofactor KM; read-out: apparent KM.
Chain of ApbA protein (ketopantoate reductase) (P37402 whole entry): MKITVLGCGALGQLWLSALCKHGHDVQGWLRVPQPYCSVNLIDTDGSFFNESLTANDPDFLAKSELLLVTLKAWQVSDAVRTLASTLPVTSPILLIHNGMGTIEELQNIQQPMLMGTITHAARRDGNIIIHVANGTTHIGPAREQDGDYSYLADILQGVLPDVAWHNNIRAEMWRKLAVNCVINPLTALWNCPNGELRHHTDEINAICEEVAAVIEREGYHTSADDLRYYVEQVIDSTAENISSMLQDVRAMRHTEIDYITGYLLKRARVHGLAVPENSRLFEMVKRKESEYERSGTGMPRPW

For `NC(=O)C1=CN([C@@H]2O[C@H](COP(=O)(O)OP(=O)(O)OC[C@H]3O[C@@H](n4cnc5c(N)ncnc54)[C@H](OP(=O)(O)O)[C@@H]3O)[C@@H](O)[C@H]2O)C=CC1` [NADPH], the Km is 770 µM. For `CC(C)(CO)C(=O)C(=O)O` [ketopantoate], the Km was 740 µM.
